Data on one cell line can be found in the supplement of paper PMC10307832.

What all share (experiment): relative viability (nuclei count vs DMSO), 5 days (fraction); higher = more cells survive
Compound in the experiment “4EGI-1 + Navitoclax”: O=C(O)C(Cc1ccccc1[N+](=O)[O-])=NNc1nc(-c2ccc(Cl)c(Cl)c2)cs1 (mixture of isomers) [4EGI-1] + CC1(C)CCC(c2ccc(Cl)cc2)=C(CN2CCN(c3ccc(C(=O)NS(=O)(=O)c4ccc(N[C@H](CCN5CCOCC5)CSc5ccccc5)c(S(=O)(=O)C(F)(F)F)c4)cc3)CC2)C1 [Navitoclax] (partner 0.5 µM)
Put shortly:
(§1)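 Dosing by pin tool came one day after lung cancer cell lines were seeded in 1536-well plates, using either one drug or a fixed anchor-drug dose plus five library-drug doses (not always all listed) in √10 steps. After 5 days, nuclei were counted on 4× images. Relative viability is treated-well nuclei count divided by vehicle-well nuclei count, and values are medians of duplicate plates.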

Compound in the experiment “4EGI-1 + Olaparib”: O=C(O)C(Cc1ccccc1[N+](=O)[O-])=NNc1nc(-c2ccc(Cl)c(Cl)c2)cs1 (mixture of isomers) [4EGI-1] + O=C(c1cc(Cc2n[nH]c(=O)c3ccccc23)ccc1F)N1CCN(C(=O)C2CC2)CC1 [Olaparib] (partner 8 µM)
Put shortly:
as §1

Compound in the experiment “XMD8-85 + Trametinib”: CN1CCN(CC1)C2=CC(=C(C=C2)NC3=NC=C4C(=N3)N(C5=CC=CC=C5C(=O)N4C)C)OC [XMD8-85] + CC(=O)Nc1cccc(-n2c(=O)n(C3CC3)c(=O)c3c(Nc4ccc(I)cc4F)n(C)c(=O)c(C)c32)c1 [Trametinib] (partner 0.02 µM)
The method in brief:
as §1

Compound in the experiment “4EGI-1 + Lapatinib”: O=C(O)C(Cc1ccccc1[N+](=O)[O-])=NNc1nc(-c2ccc(Cl)c(Cl)c2)cs1 (mixture of isomers) [4EGI-1] + CS(=O)(=O)CCNCc1ccc(-c2ccc3ncnc(Nc4ccc(OCc5cccc(F)c5)c(Cl)c4)c3c2)o1 [Lapatinib] (partner 2 µM)
Put shortly: as §1

Take NCI-H1792: the relative viability with 4EGI-1 + Navitoclax (first compound 0.5 µM) amounted to 0.618; with 4EGI-1 + Navitoclax (first compound 1.581 µM), 0.498; with 4EGI-1 + Navitoclax (first compound 5 µM) it was 0.607; in the experiment with 4EGI-1 + Navitoclax (first compound 15.81 µM), 0.552; with 4EGI-1 + Navitoclax (first compound 50 µM) it was 0.542; in the experiment with 4EGI-1 + Olaparib (first compound 0.5 µM), 0.412. The relative viability was 0.496 with 4EGI-1 + Olaparib (first compound 1.581 µM); 0.359 with 4EGI-1 + Olaparib (first compound 5 µM); 0.36 with 4EGI-1 + Olaparib (first compound 15.81 µM); 0.165 with 4EGI-1 + Olaparib (first compound 50 µM); 0.483 in the experiment with XMD8-85 + Trametinib (first compound 0.253 µM); 0.308 in the experiment with XMD8-85 + Trametinib (first compound 0.8 µM). Besides, the relative viability worked out at 0.463 in the experiment with XMD8-85 + Trametinib (first compound 2.53 µM); 0.271 with XMD8-85 + Trametinib (first compound 8 µM); 0.84 with 4EGI-1 + Lapatinib (first compound 0.5 µM); 0.864 with 4EGI-1 + Lapatinib (first compound 1.581 µM); 0.899 with 4EGI-1 + Lapatinib (first compound 5 µM); 0.816 in the experiment with 4EGI-1 + Lapatinib (first compound 15.81 µM). In addition, the relative viability in the experiment with 4EGI-1 + Lapatinib (first compound 50 µM) came out at 0.557.
